Laboratory results published in patent publication US6811970B2, “Assay for identifying inhibitors of HIV RT dimerization” (priority 2001, dated 2004).

Assays:
[1] = target: HIV-1 RT p66/p51 heterodimer (Human immunodeficiency virus type 1 group M subtype B, UniProt P04585, C625S/C867S/P588C); assay: TRF microplate assay of p66/p51 RT heterodimer formation; settings: compound at 10 μM; dimer formation 6 h; urea diluted 3.5 M to 0.35 M
Method: The general principle of the assay involves mixing of His6x-p51 with fluorophore-labeled p66 RT in solution, with subsequent solid-phase capture of resulting His6x-p51/fluorophore-labeled p66 RT heterodimer on Ni^2+-NTA microplates. After washing to remove unbound material, the amount of microplate-associated fluorescence is measured in an appropriate fluorescence plate reader.
In a total volume of 20 μl, mix 100 pmol of purified His6x-p51 RT subunit and 200 pmol of Eu-N1-iodoacetamido chelate labeled p66 RT subunit (i.e., 100 pmol RT p66/p66 homodimer) with urea (prepared in 25 mM Tris-HCl pH 7.5, 20° C., containing 100 mM MgCl2) to provide a final concentration of 3.5 M urea. Incubate this mixture for 1 h at room temperature.
Dilute this solution into 200 μL of a solution of the compound of interest at 10 μM (in 25 mM Tris-HCl pH 7.5, 20° C., containing 50 mM Na2SO4) contained in a well of a 96-well Ni-NTA HiSorb Plate.
The dilution step provides a 10-fold dilution to reduce the urea concentration from 3.5M to 0.35M, thereby allowing formation of the RT p66/p51 heterodimer. Dimer formation is allowed to proceed for 6 h, then the plates are washed 3× with Delfia wash buffer containing 200 μM DTPA. After washing, 200 μL of the Delfia enhancement solution is added to each well, followed by incubation at room temperature for 30 minutes.

[2] = target: T1, unlabeled P2C/C38S/C280S p66/p66 RT (Human immunodeficiency virus type 1 group M subtype B, UniProt P04585, C625S/C867S/P588C); assay: Inhibition of unlabeled P2C/C38S/C280S p66/p66 RT by HIV RT inhibitors; type: biochemical, HIV-1
T1 construct: made in house; host or cells: E. coli JM109 (pKK-RT66-P2C)

WT p66/p66 RT = target: T2, WT p66/p66 RT (Human immunodeficiency virus type 1 group M subtype B, UniProt P04585); assay: Inhibition of WT p66/p66 RT (data not shown); type: biochemical, HIV-1
T2 construct: IPTG-dependent expression of the non-HIS-tagged 66 kDa RT subunit; made in house; host or cells: E. coli JM109 (pKK-RT66WT)
From the text: The P2C/C38S/C280S p66/p66 RT chemically alkylated with the Eu-N1-iodoacetamido chelate retains approximately 80% of the RDDP activity of the unmodified protein (Table 1). […] Thus, the genetic and chemical manipulations of RT required to prepare reagents for the dimerization assay appear to have little effect on the response of the enzyme within the parameters of the assay protocol.

[3] = target: T3, Eu^3+-labeled P2C/C38S/C280S p66/p66 RT (Human immunodeficiency virus type 1 group M subtype B, UniProt P04585, C625S/C867S/P588C); assay: Inhibition of Eu3+-labeled P2C/C38S/C280S p66/p66 RT by HIV RT inhibitors; type: biochemical, HIV-1; settings: P2C/C38S/C280S p66/p66 RT alkylated with Eu-N1-iodoacetamido chelate
T3 construct: made in house; host or cells: E. coli JM109 (pKK-RT66-P2C), then chemical alkylation
Method: Purified P2C/C38S/C280S p66/p66 RT was concentrated to approximately 20 μM (˜2.5 mg/ml) in 50 mM Tris-HCl buffer (pH 7.9 at 20° C.) containing 100 mM NaCl and 1 mM TCEP-HCl (Tris(2-carboxyethyl)phosphine hydrochloride (Pierce)) at room temperature. An aliquot of Eu-N1-iodoacetamido chelate protein-modification reagent (prepared as a 5 mM stock solution in DMSO) was added to provide an approximately 20-fold molar excess relative to the p66 subunit concentration. The alkylation reaction was allowed to proceed for up to 6 hours at room temperature. Alternatively, the reaction may be carried out overnight at 4° C. Upon completion of the reaction, an excess of DTT was added to consume unreacted Eu-N 1-iodoacetamido chelate. The alkylated p66/p66 RT was separated from the DTT-reagent conjugate by two passages through a NAPT™ 25 column equilibrated with a 25 mM Tris-HCl buffer (pH 7.5, 20° C.) containing 60 mM MgCl2 and 50% glycerol. The stoichiometry of labeling was generally found to be between 0.7-1 mol of Eu-N1-iodoacetamide per mol of p66 RT subunit (i.e., 1.5-2 mol/mol p66/p66 RT homodimer).

HIV-1 RT = HIV-1 RT (Human immunodeficiency virus type 1 group M subtype B, UniProt P04585); settings: Tachedjian et al., 2001, PNAS, 7188-7193; cited from earlier work

In the case of Cc1cn([C@@H]2O[C@H](CO[Si](C)(C)C(C)(C)C)[C@@]3(OS(=O)(=O)C=C3N)[C@H]2O[Si](C)(C)C(C)(C)C)c(=O)n(C)c1=O [TSAOm^3T], the “TRF signal relative to control (RT dimerization, FIG. 5B)” value [1] is reported as “decreases the signal”.

With CCn1c(=O)c(C)cn([C@@H]2O[C@H](CO[Si](C)(C)C(C)(C)C)C3(OS(=O)(=O)C=C3N)[C@H]2O[Si](C)(C)C(C)(C)C)c1=O (some centres unmarked) [TSAOe3T] the IC50 [2] was 3000 nM, the “Sensitivity of WT p66/p66 RT to inhibition compared with unmodified P2C/C38S/C280S p66/p66 mutant” value (WT p66/p66 RT) was “equally sensitive” and the IC50 [3] was 3000 nM.

For Cc1ccnc2c1NC(=O)c1cccnc1N2C1CC1 [Nevirapine], the “Effect on dimerization of the HIV-1 RT as reported” value (HIV-1 RT) is given as “chemical enhancers of dimerization”.
